Measured values as given in patent publication US8008258B2, “Cop 1 for treatment of inflammatory bowel diseases” (Yeda Research and Development Co. Ltd., priority 2003, dated 2011).
Marks after values point to notes of the source that are not given here.

Legend:
[1] = tested on: TGF-β secretion by spleen and MLN cells; test: TGF-β secretion by spleen and MLN cells (ELISA); format: cell-based; details: colitis-induced BALB/c mice treated with GA; anti-CD3 stimulation
Method: FIGS. 6A-6B show the effect of GA treatment on TGF-β secretion by lymphocytes of TNBS-induced BALB/c mice. Cells of spleen or mesenteric lymph nodes (MLN) from normal mice, colitis-induced mice, and colitis-induced mice treated with GA were cultured either with GA (50 μg/ml) (FIG. 6A) or immobilized anti-CD3 (5 μg/ml) (FIG. 6B). After 72 hours, supernatants from six culture wells were pooled and TGF-β was measured by ELISA in duplicates. Results are expressed as TGF-β concentration (pg/ml±1 SD) and represent one of two similar experiments, using pooled cells from 3-5 mice in each group. # Indicates significant decrease in TGF-β in colitic mice in comparison to normal mice. * Indicates significant increase in TGF-β induced by GA treatment in comparison to untreated colitis induced mice.
Reactivity assays. Spleens and mesenteric lymph nodes (MLN) cells (0.5×10^6 cell/well) were cultured with either GA (50 μg/ml), colon extract (200 μg/ml), immobilized anti-CD3 (5 μg/ml), or PBS control, in a final volume of 250 μl/well (6 wells for each antigen). For proliferation assay, cells were cultured in RPMI 1640 with 10% FCS, pulsed with 1 μCi of [3H] thymidine after 48 h incubation, and harvested 12 h later. […]

[2] = tested on: TNBS-induced colitis; test: TNBS-induced colitis in (SJL/JxBALB/c)F1 mice, various GA treatment modes; format: in vivo; details: for Decrease in the total macroscopic score versus untreated mice: 5 days after disease induction; for Decrease in the total macroscopic damage versus untreated mice: fed with GA
Method: Induction of cholitis in mice. TNBS-colitis was induced by rectal instillation of 2,4,6-trinitrobenzene sulfonic acid 5% (w/v), mixed with an equal volume of ethanol, into anesthetized mice (100 μl/mouse). Each treatment group included 6-12 mice. Mice that died before day 4 were considered as treatment casualties and were not taken into consideration.
Assessment of colitis. Weight changes and survival were monitored daily. […]
Macroscopic colonic scoring. Gross colonic damage was graded according to Reuter et al. (1996), using the combined values of the four standard macroscopic parameters: degree of colonic ulcerations (scale from 0—completely normal, to 10—most severe); intestinal and peritoneal adhesions (0 to 2); diarrhea (0 to 1); and thickness (0 to 1). The total score is the arithmetic sum of the four scores. The evaluation was performed in a blind procedure.
Microscopic scoring. Proximal, medial, and distal portions of colon were fixed in 10% phosphate-buffered formalin. Paraffin-embedded sections were stained with hematoxylin and eosin. The degree of histological damage and inflammation was graded according to Elson et al. (1996) using the combined values of the four microscopic parameters: extent (scale from 0—completely normal, to 2—involving more than one segment); inflammation (0—none to 3—severe); damage (0 to 3—severe transmural); and regeneration (0—complete re-eptihelization to 3—none). The total score is the arithmetic sum of the four scores. The evaluation was performed in a blind procedure.
Oral treatment—250 μg/day in PBS, fed by gastric intubation with an 18-gauge stainless steel feeding needle. Unless otherwise stated, feedings were performed on days-7, -5, -3, -1, 0, 2, 4 and 6, relative to the day of TNBS instillation. […]
To explore whether the beneficial effect of GA on TNBS-induced colitis is restricted to oral administration in the BALB/c strain or represents a more general effect, we studied the ability of GA administered by different routes and dosages to inhibit TNBS-induced colitis in two additional strains of mice.

[3] = scoring 5 days after disease induction, GA injected daily (from day −7), 2.5 mg/mouse SC
[4] = scoring 5 days after disease induction, GA injected daily (from day −14), 2.5 mg/mouse SC
[5] = scoring 5 days after disease induction, GA injected once day −14, 5 mg/mouse SC in ICFA
[6] = scoring 5 days after disease induction, GA oral every other day (from day −7), 0.25 mg, 8 feedings
[7] = scoring 11 days after disease induction, GA injected daily (from day −7), 2.5 mg/mouse SC
[8] = scoring 11 days after disease induction, GA injected daily (from day −14), 2.5 mg/mouse SC
[9] = scoring 11 days after disease induction, GA injected once day −14, 5 mg/mouse SC in ICFA
[10] = scoring 11 days after disease induction, GA oral every other day (from day −7), 0.25 mg, 8 feedings

For glatiramer acetate [GA], the “TGF-β secretion in the MLN relative to the secretion of normal mice” value [1] was 2.2 folds, the “Decrease in the total macroscopic score versus untreated mice” value ([2]; GA daily injections from day −7) was 3.5 fold and the “Decrease in the total macroscopic score versus untreated mice” value ([2]; GA daily injections from day −14) was 4.6 fold. For the same substance, the Complete weight restoration ([2]; GA injected daily (from day −7)) was ≤ 6 days, the “Weight loss (of original weight)” value ([2]; GA injected daily (from day −7), 1 day after induction) was 4% and the Mortality ([2]; daily injection of GA (starting both 7 and 14 days before disease induction)) was “completely prevented mortality”. For the same substance, the “Reduction in the histological score” value ([2]; daily injections (starting either 7 or 14 days before disease induction)) was 6.6 fold, the “Inhibition of weight loss caused by TNBS colitis” value ([2]; daily-injected mice) was “major significant inhibition of weight loss” and the “Decrease in the total macroscopic damage versus untreated mice” value ([2]; observed 5 days after TNBS inoculation) was 1.8 fold. The “Decrease in the total macroscopic damage versus untreated mice” value ([2]; observed 11 days after TNBS inoculation) was 1.7 fold, the “Reduction in the histological score” value ([2]; oral treatment) was 1.8 fold and the Mortality rate ([2]; oral treatment with GA, by day 8) was 30%. The “Inhibition of weight loss caused by TNBS colitis” value ([2]; orally-treated mice) was “modest, statistically insignificant, inhibition of weight loss”, the “Macroscopic scoring of colon damage: Adhesion (max 2)” value (shortened to “Macroscopic scoring … (max 2)”) [2, 3] was 0.8 and the “Macroscopic scoring of colon damage: Diarrhea (max 1)” value [2, 3] was 0.4. The “Macroscopic scoring of colon damage: Thickness (max 1)” value [2, 3] was 0.1, the “Macroscopic scoring of colon damage: Total Score (max 14)” value (from here on “Macroscopic scoring … (max 14)”) [2, 3] was 2.7* and the “Macroscopic scoring of colon damage: Ulceration (max 10)” value (“Macroscopic scoring … (max 10)” for short) [2, 3] was 1.4. The “Macroscopic scoring … (max 2)” value [2, 4] was 0.4, the “Macroscopic scoring of colon damage: Diarrhea (max 1)” value [2, 4] was 0.2 and the “Macroscopic scoring of colon damage: Thickness (max 1)” value [2, 4] was 0.1. The “Macroscopic scoring … (max 14)” value [2, 4] was 2.1*, the “Macroscopic scoring … (max 10)” value [2, 4] was 1.4 and the “Macroscopic scoring … (max 2)” value [2, 5] was 1.4. For the same substance, the “Macroscopic scoring of colon damage: Diarrhea (max 1)” value [2, 5] was 0.3, the “Macroscopic scoring of colon damage: Thickness (max 1)” value [2, 5] was 0.3 and the “Macroscopic scoring … (max 14)” value [2, 5] was 6.4. For the same substance, the “Macroscopic scoring … (max 10)” value [2, 5] was 4.4, the “Macroscopic scoring … (max 2)” value [2, 6] was 1.0 and the “Macroscopic scoring of colon damage: Diarrhea (max 1)” value [2, 6] was 0.3. For the same substance, the “Macroscopic scoring of colon damage: Thickness (max 1)” value [2, 6] was 0.3, the “Macroscopic scoring … (max 14)” value [2, 6] was 5.4 and the “Macroscopic scoring … (max 10)” value [2, 6] was 3.8. For the same substance, the “Macroscopic scoring … (max 2)” value [2, 7] was 0.0, the “Macroscopic scoring of colon damage: Diarrhea (max 1)” value [2, 7] was 0.0 and the “Macroscopic scoring of colon damage: Thickness (max 1)” value [2, 7] was 0.0. The “Macroscopic scoring … (max 10)” value [2, 7] was 0.1, the “Macroscopic scoring … (max 2)” value [2, 8] was 0.0 and the “Macroscopic scoring of colon damage: Diarrhea (max 1)” value [2, 8] was 0.0. For the same substance, the “Macroscopic scoring of colon damage: Thickness (max 1)” value [2, 8] was 0.0, the “Macroscopic scoring … (max 10)” value [2, 8] was 0.1 and the “Macroscopic scoring … (max 2)” value [2, 9] was 1.0. For the same substance, the “Macroscopic scoring of colon damage: Diarrhea (max 1)” value [2, 9] was 0.2, the “Macroscopic scoring of colon damage: Thickness (max 1)” value [2, 9] was 0.2 and the “Macroscopic scoring … (max 14)” value [2, 9] was 3.7. For the same substance, the “Macroscopic scoring … (max 10)” value [2, 9] was 2.3, the “Macroscopic scoring … (max 2)” value [2, 10] was 0.6 and the “Macroscopic scoring of colon damage: Diarrhea (max 1)” value [2, 10] was 0.1. For the same substance, the “Macroscopic scoring of colon damage: Thickness (max 1)” value [2, 10] was 0.2, the “Macroscopic scoring … (max 14)” value [2, 10] was 3.2 and the “Macroscopic scoring … (max 10)” value [2, 10] was 2.3. The “Effect on macroscopic scores versus untreated controls” value ([2]; single injection of GA as a depot dose in ICFA) was “small and statistically insignificant”.
